Values of other authors in article PMC8042970, “A phase 1 study of dalpiciclib, a cyclin-dependent kinase 4/6 inhibitor in Chinese patients with advanced breast cancer” (Biomarker Research, 2021).
Where two headings read alike, the source gives them in different places. Each block holds one molecule with its values, some of them ahead of it.

How the values were obtained:
CDK4 = conditions: ref product label or FDA review
CDK6 = conditions: ref product label or FDA review
[1] = set-up: method as in product label or FDA review; conditions: ref product label or FDA review
[2] = tested on: HR-positive and HER2-negative metastatic breast cancer
[3] = set-up: method as in product label or FDA review; conditions: ref product label or FDA review; remark: listed apart in the source
[4] = set-up: method as in product label or FDA review; conditions: ref product label or FDA review; remark: listed apart in the source
[5] = single agent abemaciclib, heavily pretreated population
[6] = phase 1 dose-escalation study of palbociclib
[7] = single agent palbociclib, moderately pretreated population

IC50 (CDK4): […] | IC50 (CDK6): 9.9 nM | Excretion, Feces [1]: 81% | Excretion, Urine [1]: 3% | Metabolism [3]: Liver (CYP3A4)
SMILES: CCN1CCN(Cc2ccc(Nc3ncc(F)c(-c4cc(F)c5nc(C)n(C(C)C)c5c4)n3)nc2)CC1 [abemaciclib]
DCR [2, 5]: 66.7% | Median PFS [2, 5]: 5.9 months

SMILES: CC(=O)c1c(C)c2cnc(Nc3ccc(N4CCNCC4)cn3)nc2n(C2CCCC2)c1=O [palbociclib]
IC50 (CDK4): […] | AUCss ([4]; at recommended dose): 1633 to 1982 ng·h/mL | Tmax [4]: 6−12 h | Volume of distribution [4]: 2583 L | t1/2 [4]: 29 h | MTD and recommended phase 2 dose [6]: 125 mg | Patients with DLT [6]: 12% | Patients with QTc value of > 500 ms (phase 1 trial of palbociclib): none | Patients with maximum increase from baseline QTc of < 30 ms (phase 1 trial of palbociclib): 26 of 41 | IC50 (CDK6): […] | DCR [2, 7]: 63.8% | Median PFS [2, 7]: […]

IC50 (CDK4): […] | Cmin,ss ([4]; at recommended dose): 631 ng/mL | Mild hepatic/renal impairment [4]: No effect on exposure | Tmax [4]: 1−4 h | Volume of distribution [4]: 1090 L | DLT: increased creatinine (phase 1 study of ribociclib): 1 | DLT: mucositis (phase 1 study of ribociclib): 1 | DLT: neutropenia (phase 1 study of ribociclib): 3 cases | DLT: pulmonary embolism (phase 1 study of ribociclib): 1 | DLT: thrombocytopenia (phase 1 study of ribociclib): 2 cases | Patients with DLTs (phase 1 study of ribociclib, first treatment cycle): 13% | Excretion, Feces [1]: 69% | Excretion, Urine [1]: 23% | Metabolism [3]: Liver (CYP3A4)
SMILES: CN(C)C(=O)c1cc2cnc(Nc3ccc(N4CCNCC4)cn3)nc2n1C1CCCC1 [ribociclib]
DLT: QTcF prolongation (phase 1 study of ribociclib): 1 | Patients with QTcF prolongation (ribociclib): 6–9%
